Experimental data reported in patent publication US8299074B2, “P38 MAP kinase inhibitors” (RespiVert Ltd., priority 2008, dated 2012).
Read-outs that look alike come from different tables or passages of the source.

Experiments:
THP-1 cells = experiment: LPS-induced TNF alpha release in THP-1 cells; format: cell-based; details: Homo sapiens
Experimental: LPS-Induced TNF Alpha Release in THP-1 Cells: Potency […] Coli; O111:B4, Sigma) for 4 hr and the supernatant collected for determination of TNFα concentration by sandwich ELISA (Duo-set, R&D systems). The inhibition of TNFα production was calculated at each concentration by comparison with vehicle control.

BEAS2B cells = experiment: Poly I:C-induced ICAM-1 induction in BEAS2B cells; format: cell-based; details: Homo sapiens, BEAS-2B, read-out: BEAS2B (polyIC) ICAM1 IC50
In short: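 Poly I:C (1 ug/ml) transfected into BEAS2B cells after 2 h compound pre-incubation. Surface ICAM-1 measured by cell-based ELISA 18 h post-transfection (HRP, OD450–655), corrected for cell number by OD595.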

U937 cells [1] = experiment: LPS-induced TNF alpha release in U937 cells; format: cell-based
In short: (§1)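 U937 cells differentiated with PMA (100 ng/ml) for 48 to 72 hours, pre-treated with compound for 2 hrs, then stimulated with E. coli O111:B4 LPS for 4 hrs. Supernatant TNFα and IL-8 measured by sandwich ELISA; inhibition at each concentration versus vehicle control.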

p38 MAPK alpha (MAPK14) = target: T1, p38 MAPK alpha (MAPK14) (Homo sapiens, UniProt Q16539); experiment: Enzyme inhibition assay, p38 MAPK alpha (FRET, Z-LYTE, via MAPKAP-K2); format: biochemical; details: read-out: Enzyme p38α IC50
T1 construct: purchased Invitrogen
T1 sequence (Q16539 whole entry): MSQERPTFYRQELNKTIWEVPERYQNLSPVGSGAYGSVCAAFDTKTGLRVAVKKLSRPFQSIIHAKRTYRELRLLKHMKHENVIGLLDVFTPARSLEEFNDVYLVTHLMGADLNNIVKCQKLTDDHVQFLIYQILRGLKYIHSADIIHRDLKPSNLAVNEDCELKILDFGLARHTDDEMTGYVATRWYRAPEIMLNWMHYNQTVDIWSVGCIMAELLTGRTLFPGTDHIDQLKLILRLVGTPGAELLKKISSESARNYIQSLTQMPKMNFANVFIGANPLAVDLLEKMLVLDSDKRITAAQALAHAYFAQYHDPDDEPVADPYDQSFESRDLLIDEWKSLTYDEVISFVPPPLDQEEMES

U937 cells [2] = experiment: LPS-induced IL-8 release in U937 cells; format: cell-based; details: Homo sapiens, read-out: DU937 (LPS) IL-8 IC50
In short: as §1

[3] = test system: Differentiated U937 cells; experiment: MTT assay (cell viability); format: cell-based, human; details: loss of cell viability at 1 μg/ml
In short: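 Differentiated U937 cells pre-incubated with compound 4 h in 5% FCS or 24 h in 10% FCS; MTT read at 550 nm after DMSO solubilisation. Percentage loss of viability relative to 0.5% DMSO vehicle; apparent increases appear as negative percentages.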

[4] = THP-1, Table 2, read-out: THP-1 (LPS) TNFα IC50
[5] = Homo sapiens; read-out: DU937 (LPS) TNFα REC50
[6] = THP-1, Table 3, read-out: THP-1 (LPS) TNFα IC50

SMILES | IC50 (THP-1 cells; [4]) | IC50 (BEAS2B cells; Table 2) | EC50 (U937 cells [1]; [5]) | IC50 (p38 MAPK alpha (MAPK14); Table 2) | IC50 (U937 cells [2]; Table 2) | DU937 (cell viability) MTT assay 4 h ([3]; Table 2) | DU937 (cell viability) MTT assay 24 h ([3]; Table 2) | IC50 (THP-1 cells; [6]) | IC50 (BEAS2B cells; Table 3) | IC50 (p38 MAPK alpha (MAPK14); Table 3) | IC50 (U937 cells [2]; Table 3) | DU937 (cell viability) MTT assay 4 h ([3]; Table 3, first MTT column) | DU937 (cell viability) MTT assay 4 h ([3]; Table 3, second MTT column) | IC50 (THP-1 cells; THP-1, read-out: THP-1 (LPS) TNFα IC50) | IC50 (BEAS2B cells) | EC50 (U937 cells [1]; Homo sapiens, read-out: DU937 (LPS) TNFα REC50) | IC50 (U937 cells [2])
COCC(=O)Nc1cc(Oc2ccc(NC(=O)Nc3cc(C(C)(C)C)nn3-c3ccc(C)cc3)cc2)ccn1 [Example 22, N-(4-(4-(3-(3-tert-Butyl-1-p-tolyl-1H-pyrazol-5-yl)ureido)phenoxy)pyridin-2-yl)-2-methoxyacetamide] | < 10 nM | < 5000 nM | < 10 nM | < 5000 nM | < 10 nM | − (<=30%) | + (>30%) | – | – | – | – | – | – | – | – | – | –
Cc1ccc(-n2nc(C(C)(C)C)cc2NC(=O)Nc2ccc(Oc3ccnc(NC(=O)CNC(=O)CCN4CCOCC4)c3)c3ccccc23)cc1 [Example 19, N-(2-(4-(4-(3-(3-tert-Butyl-1-p-tolyl-1H-pyrazol-5-yl)ureido)naphthalen-1-yloxy)pyridin-2-ylamino)-2-oxoethyl)-3-morpholinopropanamide] | < 10 nM | < 10 nM | < 10 nM | < 10 nM | < 10 nM | − (<=30%) | + (>30%) | – | – | – | – | – | – | – | – | – | –
COCC(=O)Nc1cc(Oc2ccc(NC(=O)Nc3cc(C(C)(C)CO)nn3-c3ccc(C)cc3)c3ccccc23)ccn1 [Example 9, N-(4-(4-(3-(3-(1-Hydroxy-2-methylpropan-2-yl)-1-p-tolyl-1H-pyrazol-5-yl)ureido)naphthalen-1-yloxy)pyridin-2-yl)-2-methoxyacetamide] | < 10 nM | < 5000 nM | < 10 nM | < 10 nM | < 10 nM | − (<=30%) | − (<=30%) | – | – | – | – | – | – | – | – | – | –
Cc1ccc(-n2nc(C(C)(C)C)cc2NC(=O)Nc2ccc(Oc3ccnc(NC(=O)CNC(=O)C4CCOCC4)c3)c3ccccc23)cc1 [Example 16, N-(2-(4-(4-(3-(3-tert-Butyl-1-p-tolyl-1H-pyrazol-5-yl)ureido)naphthalen-1-yloxy)pyridin-2-ylamino)-2-oxoethyl)tetrahydro-2H-pyran-4-carboxamide] | < 10 nM | < 10 nM | < 10 nM | < 10 nM | < 10 nM | − (<=30%) | + (>30%) | – | – | – | – | – | – | – | – | – | –
Cc1ccc(-n2nc(C(C)(C)C)cc2NC(=O)Nc2ccc(Oc3ccnc(NC(=O)N4CCCCC4)c3)c3ccccc23)cc1 [Example 45, N-(4-((4-(3-(3-(tert-Butyl)-1-(p-tolyl)-1H-pyrazol-5-yl)ureido)naphthalen-1-yl)oxy)pyridin-2-yl)piperidine-1-carboxamide] | – | – | < 10 nM | – | – | – | – | < 10 nM | < 10 nM | < 10 nM | < 10 nM | − (<=30%) | − (<=30%) | – | – | – | –
Cc1ccc(-n2nc(C(C)(C)C)cc2NC(=O)Nc2ccc(Oc3ccnc(NC(=O)CNC(=O)c4ccncc4)c3)c3ccccc23)cc1 [Example 17, N-(2-(4-(4-(3-(3-tert-Butyl-1-p-tolyl-1H-pyrazol-5-yl)ureido)naphthalen-1-yloxy)pyridin-2-ylamino)-2-oxoethyl)isonicotinamide] | – | – | – | < 10 nM | – | − (<=30%) | + (>30%) | – | – | – | – | – | – | < 10 nM | < 10 nM | < 10 nM | < 10 nM
Cc1ccc(-n2nc(C(C)(C)C)cc2NC(=O)Nc2ccc(Oc3ccnc(NC(=O)N4CC[C@@H](N(C)C)C4)c3)c3ccccc23)cc1 [Example 54, (R)—N-(4-(4-(3-(3-tert-Butyl-1-p-tolyl-1H-pyrazol-5-yl)ureido)naphthalen-1-yloxy)pyridin-2-yl)-3-(dimethylamino)pyrrolidine-1-carboxamide] | – | – | < 10 nM | – | – | – | – | < 10 nM | < 10 nM | < 10 nM | < 10 nM | − (<=30%) | − (<=30%) | – | – | – | –
